Test results from paper PMC9299836 (eLife, 2022).
Where “and” joins values, the source holds several entries; their conditions need not be identical. Equal entries are not always repeated. Where two headings read alike, the source gives them in different places.

Tests used:
mGluR2 [1] = molecular target: mGluR2 (Mus musculus, UniProt Q14BI2, A548F); experiment: Live-cell FRET, azi-CRD (cysteine-rich domain) sensor in HEK293T cells; conditions: for Normalized FRET response, Mean (azi-CRD agonist DRC): maximal responses normalized to 1mM glutamate
Chain of mGluR2 (Mus musculus, UniProt Q14BI2, A548F) (Q14BI2 19-872 A548F): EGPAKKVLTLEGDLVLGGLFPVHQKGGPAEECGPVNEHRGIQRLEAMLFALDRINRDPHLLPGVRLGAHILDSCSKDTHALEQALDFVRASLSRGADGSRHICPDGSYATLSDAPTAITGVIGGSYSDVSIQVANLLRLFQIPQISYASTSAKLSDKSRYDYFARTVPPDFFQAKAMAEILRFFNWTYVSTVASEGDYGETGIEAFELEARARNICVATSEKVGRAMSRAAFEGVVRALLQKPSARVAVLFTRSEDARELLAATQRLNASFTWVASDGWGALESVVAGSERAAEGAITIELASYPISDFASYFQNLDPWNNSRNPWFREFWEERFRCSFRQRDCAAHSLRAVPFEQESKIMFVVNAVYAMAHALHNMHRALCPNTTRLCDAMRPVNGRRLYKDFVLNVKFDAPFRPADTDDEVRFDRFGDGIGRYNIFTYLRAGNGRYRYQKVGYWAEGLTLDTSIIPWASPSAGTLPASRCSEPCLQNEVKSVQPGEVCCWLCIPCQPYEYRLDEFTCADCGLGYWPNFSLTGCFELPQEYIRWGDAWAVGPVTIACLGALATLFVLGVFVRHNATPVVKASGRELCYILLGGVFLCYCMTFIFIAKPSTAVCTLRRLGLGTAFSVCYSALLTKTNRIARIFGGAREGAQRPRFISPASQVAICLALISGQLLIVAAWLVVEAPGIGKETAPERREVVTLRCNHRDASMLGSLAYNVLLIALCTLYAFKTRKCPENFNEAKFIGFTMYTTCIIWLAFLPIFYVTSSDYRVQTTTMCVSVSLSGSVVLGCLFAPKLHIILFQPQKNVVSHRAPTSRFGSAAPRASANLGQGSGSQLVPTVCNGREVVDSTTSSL

mGluR2 [2] = molecular target: T1, mGluR2 (Mus musculus, UniProt Q14BI2); experiment: Live-cell FRET, SNAP-m2 (VFT domain) inter-subunit sensor in HEK293T cells; conditions: for Normalized FRET response, Mean (SNAP-m2 agonist DRC): maximal responses normalized to 1mM glutamate;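 for all read-outs here: apparent FRET efficiency from whole-membrane ROIs of single cells, corrected for donor bleed-through and background, ΔFRET as treatment minus pretreatment signal, recorded at room temperature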
T1 sequence (Q14BI2 19-872): as the sequence (Q14BI2 19-872 A548F) above, with F530A counted along it

mGluR2 [3] = molecular target: mGluR2 (Mus musculus, UniProt Q14BI2, INS715F); experiment: Live-cell FRET, azi-ECL2 (7TM domain, extracellular loop 2) sensor in HEK293T cells;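 note: Cy3/Cy5 click-labeled sensor, whole-membrane ROIs per cell, apparent FRET after bleed-through correction, ΔFRET as treatment minus pre-treatment signal, at room temperature, at least three biological replicates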
Chain of mGluR2 (Mus musculus, UniProt Q14BI2, INS715F) (Q14BI2 with tags, fused parts or gaps INS715F): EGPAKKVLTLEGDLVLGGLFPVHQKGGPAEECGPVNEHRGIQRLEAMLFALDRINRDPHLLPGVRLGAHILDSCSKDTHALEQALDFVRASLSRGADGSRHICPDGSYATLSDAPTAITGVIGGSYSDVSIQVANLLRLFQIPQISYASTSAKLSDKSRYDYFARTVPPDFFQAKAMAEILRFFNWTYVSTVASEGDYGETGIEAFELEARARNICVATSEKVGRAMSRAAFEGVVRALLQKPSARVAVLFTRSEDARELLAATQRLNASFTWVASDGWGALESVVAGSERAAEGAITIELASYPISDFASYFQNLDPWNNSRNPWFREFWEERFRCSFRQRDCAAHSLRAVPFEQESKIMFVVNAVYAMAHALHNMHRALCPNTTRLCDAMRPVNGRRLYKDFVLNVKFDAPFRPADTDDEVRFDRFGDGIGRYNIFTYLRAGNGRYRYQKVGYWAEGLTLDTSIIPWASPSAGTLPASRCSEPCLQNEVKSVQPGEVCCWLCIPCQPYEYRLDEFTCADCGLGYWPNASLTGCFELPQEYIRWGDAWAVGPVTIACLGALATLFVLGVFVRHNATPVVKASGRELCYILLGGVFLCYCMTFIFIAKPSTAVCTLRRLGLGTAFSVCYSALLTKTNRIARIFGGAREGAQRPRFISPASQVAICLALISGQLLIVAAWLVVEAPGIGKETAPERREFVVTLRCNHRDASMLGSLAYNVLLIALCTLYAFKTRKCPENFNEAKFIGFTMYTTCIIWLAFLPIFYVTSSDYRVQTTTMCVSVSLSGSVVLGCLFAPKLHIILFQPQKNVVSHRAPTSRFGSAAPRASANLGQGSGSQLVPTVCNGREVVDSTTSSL

mGluR2 [4] = molecular target: T1, mGluR2; experiment: Functional calcium imaging, SNAP-mGluR2 (no FLAG-tag) with chimeric G protein Gqo5 in HEK293T cells; assay type: cell-based; parameters: Full length mGluR2 construct with an amber codon (TAG) mutation of amino acid A548 (azi-CRD) or N-terminal SNAP-tag (SNAP-mGluR2); host or cells: HEK293T; conditions: for Intracellular Ca2+ response, Mean / Intracellular Ca2+ response: normalized to 1mM glutamate; for Intracellular Ca2+ response: single experiments

N[C@@]1(C(=O)O)CN[C@@H](C(=O)O)C1 [(2R,4R)-APDC]
Hill slope (mGluR2 [1]; azi-CRD sensor, orthosteric agonist alone): 1.10
Live-cell FRET max response normalized to 1mM glutamate (mGluR2 [1]; azi-CRD sensor, (2R,4R)-APDC, individual values (N=13)): 1.025 and 1.046 and 1.029 and 1.018 and 1.041 and 0.9926 and 1.05 and 1.031 and 1.033 and 1.059 and 0.9828 and 0.9967 and 0.9994
Mean max response (normalized max ΔFRET) (mGluR2 [1]; azi-CRD, agonist alone (1 mM glutamate, 100 μM DCG-IV, 20 μM LY379268, 100 μM APDC), normalized to 1 mM glutamate): 1.02
Normalized Max ΔFRET (mGluR2 [1]; azi-CRD, 100μM agonist, individual cells, normalized to 1mM glutamate): 105.882 and 99.2629 and 105.009 and 103.1 and 103.252 and 98.2759 and 99.67 and 99.937 and 102.531 and 104.556 and 102.893 and 101.835 and 104.136
Normalized Max ΔFRET, Mean (mGluR2 [1]; azi-CRD, 100μM agonist, mean of cells, normalized to 1mM glutamate): 102.334
Normalized FRET response, Mean (azi-CRD agonist DRC) (mGluR2 [1]; log[ligand] (M) -4): 1.023
Normalized FRET response, Mean (azi-CRD agonist DRC) (mGluR2 [1]; log[ligand] (M) -4.1549): 1.003
Normalized FRET response, Mean (azi-CRD agonist DRC) (mGluR2 [1]; log[ligand] (M) -4.52288): 0.929
Normalized FRET response, Mean (azi-CRD agonist DRC) (mGluR2 [1]; log[ligand] (M) -5): 0.7432
Normalized FRET response, Mean (azi-CRD agonist DRC) (mGluR2 [1]; log[ligand] (M) -5.39794): 0.4945
Normalized FRET response, Mean (azi-CRD agonist DRC) (mGluR2 [1]; log[ligand] (M) -5.82391): 0.2779
Normalized FRET response, Mean (azi-CRD agonist DRC) (mGluR2 [1]; log[ligand] (M) -6.52288): 0.07413
Normalized FRET response, Mean (azi-CRD agonist DRC) (mGluR2 [1]; log[ligand] (M) -7): 0
EC50 (mGluR2 [1]; read-out: Mean half-maximum effective concentration (EC50), azi-CRD sensor, orthosteric agonist alone): 6.5 µM
Mean max response (normalized max ΔFRET) (mGluR2 [2]; SNAP-m2 (VFT), agonist alone (1 mM glutamate, 100 μM DCG-IV, 20 μM LY379268, 100 μM APDC), normalized to 1 mM glutamate): 0.96
Normalized Max ΔFRET (mGluR2 [2]; SNAP-m2, 100μM agonist, individual cells, normalized to 1mM glutamate): 103.479 and 93.3266 and 93.5994 and 94.2433 and 93.7977 and 94.1947 and 102.7 and 100.974 and 101.936 and 101.611 and 93.0019 and 94.3775 and 90.2119 and 91.2088
Normalized Max ΔFRET, Mean (mGluR2 [2]; SNAP-m2, 100μM agonist, mean of cells, normalized to 1mM glutamate): 96.333
Hill slope (mGluR2 [2]; SNAP-m2 sensor, orthosteric agonist alone): –1.10
Live-cell FRET max response normalized to 1mM glutamate (mGluR2 [2]; SNAP-m2 sensor, (2R,4R)-APDC, individual values (N=14)): 1.016 and 0.93 and 0.9438 and 0.9021 and 0.9121 and 0.9333 and 0.936 and 0.9424 and 0.938 and 0.9419 and 1.035 and 1.027 and 1.01 and 1.019
Normalized FRET response, Mean (SNAP-m2 agonist DRC) (mGluR2 [2]; log[ligand] (M) -4): -0.9633
Normalized FRET response, Mean (SNAP-m2 agonist DRC) (mGluR2 [2]; log[ligand] (M) -4.52288): -0.8729
Normalized FRET response, Mean (SNAP-m2 agonist DRC) (mGluR2 [2]; log[ligand] (M) -5): -0.684
Normalized FRET response, Mean (SNAP-m2 agonist DRC) (mGluR2 [2]; log[ligand] (M) -5.39794): -0.4889
Normalized FRET response, Mean (SNAP-m2 agonist DRC) (mGluR2 [2]; log[ligand] (M) -6): -0.1727
Normalized FRET response, Mean (SNAP-m2 agonist DRC) (mGluR2 [2]; log[ligand] (M) -6.52288): -0.05437
Normalized FRET response, Mean (SNAP-m2 agonist DRC) (mGluR2 [2]; log[ligand] (M) -7): 0
Normalized FRET response, Mean (SNAP-m2 agonist DRC) (mGluR2 [2]; log[ligand] (M) -7.69897): 0
EC50 (mGluR2 [2]; read-out: Live-cell FRET titration EC50, SNAP-m2, agonist alone, individual experiments): 2.88 µM and 3.03 µM and 3.16 µM and 22.1 µM and 5.53 µM and 4.87 µM
EC50 (mGluR2 [2]; read-out: Mean half-maximum effective concentration (EC50), SNAP-m2 sensor, orthosteric agonist alone): 6.9 µM
Mean max response (normalized max ΔFRET) (mGluR2 [3]; azi-ECL2, agonist alone (1 mM glutamate, 100 μM DCG-IV, 20 μM LY379268, 100 μM APDC), normalized to 1 mM glutamate): 1.05
Normalized ΔFRET response, Mean (agonist DRC) (mGluR2 [3]; azi-ECL2, log[agonist] (M) -4, normalized to 1 mM glutamate): 1.046
Normalized ΔFRET response, Mean (agonist DRC) (mGluR2 [3]; azi-ECL2, log[agonist] (M) -4.1549, normalized to 1 mM glutamate): 1.0205
Normalized ΔFRET response, Mean (agonist DRC) (mGluR2 [3]; azi-ECL2, log[agonist] (M) -4.52288, normalized to 1 mM glutamate): 0.9248
Normalized ΔFRET response, Mean (agonist DRC) (mGluR2 [3]; azi-ECL2, log[agonist] (M) -5, normalized to 1 mM glutamate): 0.7108
Normalized ΔFRET response, Mean (agonist DRC) (mGluR2 [3]; azi-ECL2, log[agonist] (M) -5.39794, normalized to 1 mM glutamate): 0.4486
Normalized ΔFRET response, Mean (agonist DRC) (mGluR2 [3]; azi-ECL2, log[agonist] (M) -5.82391, normalized to 1 mM glutamate): 0.2358
Normalized ΔFRET response, Mean (agonist DRC) (mGluR2 [3]; azi-ECL2, log[agonist] (M) -6.52288, normalized to 1 mM glutamate): 0.04024
Normalized ΔFRET response, Mean (agonist DRC) (mGluR2 [3]; azi-ECL2, log[agonist] (M) -7, normalized to 1 mM glutamate): 0
Normalized Max ΔFRET, Mean (mGluR2 [3]; azi-ECL2, 100μM agonist, mean of cells, normalized to 1mM glutamate): 104.617
Hill slope (mGluR2 [3]; azi-ECL2 sensor, orthosteric agonist alone): 1.14
EC50 (mGluR2 [3]; read-out: EC50, live-cell FRET titration, azi-ECL2 sensor, (2R,4R)-APDC, individual cell values (N=13)): 8.97 µM and 10.9 µM and 18.9 µM and 4.32 µM and 2.57 µM and 2.14 µM and 6.27 µM and 6.18 µM and 3.15 µM and 4.64 µM and 4.05 µM and 5.53 µM
EC50 (mGluR2 [3]; read-out: Mean half-maximum effective concentration (EC50), azi-ECL2 sensor, orthosteric agonist alone): 6.7 µM
Normalized Max Intracellular Ca2+ Response, individual experiments (mGluR2 [4]; 100 μM DCG-IV, 10 μM LY379268, 300 μM APDC, normalized to 1 mM glutamate, single replicate): 1.151 and 1.196 and 0.9567
Normalized Max Intracellular Ca2+ Response, mean (mGluR2 [4]; 1 mM Glu, 100 μM DCG-IV, 10 μM LY379268, 300 μM APDC, normalized to 1 mM glutamate): 1.101
Intracellular Ca2+ response, Mean (mGluR2 [4]; log[agonist] (M) -3.52288): 1.101
Intracellular Ca2+ response (mGluR2 [4]; log[agonist] (M) -3.52288): 1.101
Intracellular Ca2+ response, Mean (mGluR2 [4]; log[agonist] (M) -3.82391): 1.121
Intracellular Ca2+ response (mGluR2 [4]; log[agonist] (M) -3.82391): 1.13 and 1.129 and 1.105
Intracellular Ca2+ response, Mean (mGluR2 [4]; log[agonist] (M) -4): 1.103
Intracellular Ca2+ response (mGluR2 [4]; log[agonist] (M) -4): 1.155 and 1.085 and 1.068
Intracellular Ca2+ response, Mean (mGluR2 [4]; log[agonist] (M) -4.52288): 0.9624
Intracellular Ca2+ response (mGluR2 [4]; log[agonist] (M) -4.52288): 0.9835 and 0.9555 and 0.9483
Intracellular Ca2+ response, Mean (mGluR2 [4]; log[agonist] (M) -5): 0.7274
Intracellular Ca2+ response (mGluR2 [4]; log[agonist] (M) -5): 0.6253 and 0.7115 and 0.8453
Intracellular Ca2+ response, Mean (mGluR2 [4]; log[agonist] (M) -5.39794): 0.3932
Intracellular Ca2+ response (mGluR2 [4]; log[agonist] (M) -5.39794): 0.2825 and 0.3895 and 0.5075
Intracellular Ca2+ response, Mean (mGluR2 [4]; log[agonist] (M) -6): 0
Intracellular Ca2+ response (mGluR2 [4]; log[agonist] (M) -6): 0
Intracellular Ca2+ response, Mean (mGluR2 [4]; log[agonist] (M) -6.52288): 0
Intracellular Ca2+ response (mGluR2 [4]; log[agonist] (M) -6.52288): 0
Intracellular Ca2+ response, Mean (mGluR2 [4]; log[agonist] (M) -7): 0
Intracellular Ca2+ response (mGluR2 [4]; log[agonist] (M) -7): 0
Intracellular Ca2+ response, Mean (mGluR2 [4]; log[agonist] (M) -7.69897): 0
Intracellular Ca2+ response (mGluR2 [4]; log[agonist] (M) -7.69897): 0
Intracellular Ca2+ response, Mean (mGluR2 [4]; log[agonist] (M) -8): 0
Intracellular Ca2+ response (mGluR2 [4]; log[agonist] (M) -8): 0
EC50 (mGluR2 [4]; one value per experiment, read-out: EC50, intracellular Ca2+ response): 4.48 µM and 8.58 µM and 6.56 µM
